{"source": "patent US5216015A", "about": "“Compounds having hypocholesterolemic properties” (priority 1991, dated 1993)", "key": {"sterol synthesis": {"system": "sterol synthesis", "conditions": "et al., cited from earlier work"}, "HMG-CoA reductase [1]": {"system": "HMG-CoA reductase", "test": "HMGR Screen: inhibition of HMG-CoA reductase solubilized from rat liver microsomes", "type": "biochemical", "protocol": "(§1) The effectiveness of the compounds of this invention as hypocholesterolemic agents may be determined by the following pharmacologic tests which evaluate the HMG-CoA reductase inhibitory activity of said compounds. The HMGR Screen and Ex Vivo Fasted procedures are standard test procedures; the HMG-CoA reductase inhibitory results generally correlate with the HMG-CoA reductase inhibitory activity found in human patients.\nMale rats were acclimated to an alternate 12 hours light-dark cycle for a period of 2-3 weeks. The animals, weighing 180-230 g, were fed ad libitum a rat chow containing 2% cholestyramine for 5 days prior to sacrifice at the mid-dark period. Liver microsomes were prepared and HMG-CoA reductase enzyme was solubilized from the microsomes by freeze-thaw manipulation in high ionic strength buffer. The enzyme preparation was stored at -80° C. in 300 μl portion samples. Prior to use, the enzyme was activated by warming at 37° C. for 30 minutes. A reaction mixture was prepared which consisted of, in a volume of 240 μl: 0.14M potassium phosphate buffer (pH 7.0); 0.18M KCl; 3.5 mM EDTA; 10 mM dithiothreitol; 0.1 mg/ml BSA; 30,000 cpm of [^14 C] HMG-CoA; 20 μM HMG-CoA, and 200 μg of activated enzyme with and without compounds of the present invention (in 10 μl DMSO). After 5 minutes incubation at 37° C. the reaction was initiated with 0.2 mM NADPH. The final assay volume was 300 μl. The reaction was then terminated with 100 μl of 1N HCl. After an additional incubation for 15 minutes at 37° C. to allow for complete lactonization of the product, the mixture was diluted with 3 ml distilled water. The diluted mixture was then poured over a 0.7×1.4 cm column containing 100-200 mesh Bio-Rex ion-exchange resin (chloride form of Bio-Rad) which was equilibrated with distilled water. With this resin the unreacted [^14 C] HMG-CoA was adsorbed and the product [^14 C] mevalonolactone was eluted (80% recovery) directly into scintillation vials. After the addition of 10 ml of Aquasol, radioactivities of the samples were measured in a scintillation counter. Results are reported as % inhibition of the enzyme in the presence of a given concentration of a compound of the present invention as compared with the activity of the enzyme in the absence of said compound, i.e., in the absence of inhibitor."}, "cholesterol synthesis": {"system": "cholesterol synthesis", "test": "Ex-Vivo Fasted: inhibition of cholesterol synthesis in liver slices after oral dosing of fasted rats", "conditions": "Rattus norvegicus, 1 h, p.o. (Na+ salt), livers removed after one hour", "source_text": "as §1\nRats of 170-210 g were maintained on a low cholesterol diet for one week prior to use. Compounds of the present invention (identified in the table below) were given orally in 0.5% methocel to fasted (fasted for 16 hours) rats. After one hour the rats were decapitated and their livers removed and transferred to chilled oxygenated Kreb's-Ringer-bicarbonate buffer (pH 7.4). The livers were then chopped into 0.5 mm slices using a McIlwain tissue chopper, and were suspended in the same buffer. Aliquots of the suspension containing 100 mg tissue were pipetted to culture tubes which contained [^14 C] sodium octanoate (2 μCi, 3 mM). The tubes were gassed with 95% O2 /CO2, capped and incubated at 37° C. in a shaking water bath at 150 oscillation/min. for two hours. The final assay volume was 1.0 ml. […] After visualization with iodine the cholesterol spots were cut and counted with liquid scintillation fluid. […]"}, "HMG-CoA reductase [2]": {"system": "HMG-CoA reductase", "conditions": "Brown, et al., J. Biol. Chem. 249 (22), 7306 (1974); cited from earlier work"}, "[3]": {"conditions": "Schroepfer, et al., Proc. Natl. Acad. Sci., USA 81, 6861-6865 (1984); cited from earlier work"}, "[4]": {"conditions": "Schroepfer, J. Biol. Chem. 252 (24), 8975 (1977)"}, "[5]": {"conditions": "Kandutsch, J. Biol. Chem. 248 (24), 8408 (1974)"}}, "note": "Where two headings read alike, the source gives them in different places.", "data": [{"smiles": "CC(C)CCC[C@@H](C)[C@H]1C[C@@H](O)C2=C3CC[C@H]4C[C@@H](O)CC[C@]4(C)[C@H]3CC[C@@]21C", "note": "[5α-cholest-8(14)-en-3β,15β-diol]", "values": [{"measurement": "inhibition of sterol synthesis", "setting": "sterol synthesis; [4]", "value": "potent inhibitors of sterol synthesis"}]}, {"smiles": "CO[C@H]1CC[C@@]2(C)[C@@H](CC=C3[C@@H]2CC[C@]2(C)[C@@H]([C@H](C)CCCC(C)C)C[C@H](O)[C@@]32C)C1", "note": "[3β-methoxy-14α-methyl-5α-cholest-7-en-15α-ol]", "values": [{"measurement": "inhibition of sterol synthesis", "setting": "sterol synthesis; [4]", "value": "potent inhibitors of sterol synthesis"}]}, {"smiles": "CC(C)CCC[C@@H](C)[C@H]1C[C@@H](O)[C@@H]2C3=CC[C@H]4C[C@@H](O)CC[C@]4(C)[C@H]3CC[C@]12C", "note": "[5α,14β-cholest-7-en-3β,15β-diol]", "values": [{"measurement": "inhibition of sterol synthesis", "setting": "sterol synthesis; [4]", "value": "potent inhibitors of sterol synthesis"}]}, {"smiles": "CCC(C)(C)C(=O)O[C@H]1C[C@H]2C(=C3CC[C@H](CC[C@@H]4C[C@@H](O)CC(=O)O4)[C@]31C)CC[C@@H]1C[C@H](O)CC[C@@]12C", "note": "[Example 5, 12α-(2,2-dimethyl)butyryloxy-3α-hydroxy-17β-[2-(4(R)-hydroxy-3,4,5,6-tetrahydro-2H-pyran-2-on-6(R)-yl)-ethyl]-5β-androst-8(14)-ene]", "values": [{"measurement": "HMGR Screen % Inhibition", "setting": "HMG-CoA reductase [1]; Lactone Form, at 1.6 μM", "value": 50, "unit": "%"}, {"measurement": "HMGR Screen % Inhibition", "setting": "HMG-CoA reductase [1]; Ring-opened/Sodium Salt, at 16.9 nM", "value": 50, "unit": "%"}, {"measurement": "inhibition at 3 mg/kg", "setting": "cholesterol synthesis", "value": 47, "unit": "%"}]}, {"smiles": "CC(C)CCC[C@@H](C)[C@H]1C[C@@H](O)[C@@]2(C)C3=CC[C@H]4C[C@@H](O)CC[C@]4(C)[C@H]3CC[C@]12C", "note": "[14α-methyl-5α-cholest-7-en-3β,15β-diol]", "values": [{"measurement": "inhibition of sterol synthesis", "setting": "sterol synthesis; [4]", "value": "potent inhibitors of sterol synthesis"}]}, {"smiles": "CC(C)CCC[C@@H](C)[C@H]1C[C@H](O)[C@@H]2C3=CC[C@H]4C[C@@H](O)CC[C@]4(C)[C@H]3CC[C@]12C", "note": "[5α,14β-cholest-7-en-3β,15α-diol]", "values": [{"measurement": "inhibition of sterol synthesis", "setting": "sterol synthesis; [4]", "value": "potent inhibitors of sterol synthesis"}]}, {"smiles": "CC(C)CCC[C@@H](C)[C@H]1CC(=O)[C@@]2(C)C3=CC[C@H]4C[C@@H](O)CC[C@]4(C)[C@H]3CC[C@]12C", "note": "[14α-methyl-5α-cholest-7-en-3β-ol-15-one]", "values": [{"measurement": "inhibition of sterol synthesis", "setting": "sterol synthesis; [4]", "value": "potent inhibitors of sterol synthesis"}]}, {"smiles": "CCC(C)(C)C(=O)O[C@H]1C[C@H]2[C@@H](CC[C@@H]3C[C@H](O)CC[C@@]32C)[C@@H]2CCC=C(/C=C/C3CC(O)CC(=O)O3)[C@@]12C", "note": "(stereo partly drawn) [Example 1, 12α-(2,2-dimethyl)butyryloxy-3α-hydroxy-17a-[E-2-(4(R)-hydroxy-3,4,5,6-tetrahydro-2H-pyran-2-on-6(S)-yl)ethenyl]-D-homo-5β-androst-17-ene and 12α-(2,2-dimethyl)butyryloxy-3α-hydroxy-17a-[E-2-(4(S)-hydroxy-3,4,5,6-tetrahydro-2H-pyran-2-on-6(R)-yl)ethenyl]-D-homo-5β-androst-17-ene]", "values": [{"measurement": "HMGR Screen % Inhibition", "setting": "HMG-CoA reductase [1]; Lactone Form, at 5.9 μM", "value": 50, "unit": "%"}, {"measurement": "HMGR Screen % Inhibition", "setting": "HMG-CoA reductase [1]; Ring-opened/Sodium Salt, at 228 nM", "value": 50, "unit": "%"}]}, {"smiles": "CC(C)CCC[C@@H](C)[C@H]1C[C@H](O)C2=C3CC[C@H]4C[C@@H](O)CC[C@]4(C)[C@H]3CC[C@@]21C", "note": "[5α-cholest-8(14)-en-3β,15α-diol]", "values": [{"measurement": "inhibition of sterol synthesis", "setting": "sterol synthesis; [4]", "value": "potent inhibitors of sterol synthesis"}]}, {"smiles": "CO[C@H]1CC[C@@]2(C)[C@@H](CC=C3[C@@H]2CC[C@]2(C)[C@@H]([C@H](C)CCCC(C)C)C[C@@H](O)[C@@]32C)C1", "note": "[3β-methoxy-14α-methyl-5α-cholest-7-en-15β-ol]", "values": [{"measurement": "inhibition of sterol synthesis", "setting": "sterol synthesis; [4]", "value": "potent inhibitors of sterol synthesis"}]}, {"smiles": "CC(C)CCC[C@@H](C)[C@H]1CC[C@H]2[C@@H]3[C@H](O)C=C4C[C@@H](O)CC[C@]4(C)[C@H]3CC[C@]12C", "note": "[7α-hydroxycholesterol]", "values": [{"measurement": "inhibition of sterol synthesis", "setting": "sterol synthesis; [5]", "value": "inhibit sterol synthesis"}]}, {"smiles": "CC(C)CCC[C@@H](C)[C@H]1CC(O)C2=C3C(O)C[C@H]4C[C@@H](O)CC[C@]4(C)[C@H]3CC[C@@]21C", "note": "(stereo partly drawn) [5α-cholest-8(14)-en-3β,7.xi.,15.xi.-triol]", "values": [{"measurement": "inhibition of sterol synthesis", "setting": "sterol synthesis; [4]", "value": "potent inhibitors of sterol synthesis"}]}, {"smiles": "CCC(C)(C)C(=O)O[C@H]1C[C@H]2[C@@H]([C@H](OC(C)=O)C[C@@H]3C[C@H](O)CC[C@@]32C)[C@@H]2CC[C@H]([C@H](C)CC3CC(O)CC(=O)O3)[C@@]12C", "note": "(stereo partly drawn) [Example 3, 7α-acetoxy-12α-(2,2-dimethyl)butyryloxy-3α-hydroxy-17β-[3-(4(R)-hydroxy-3,4,5,6-tetrahydro-2H-pyran-2-on-6(R)-yl)-2(R)-2-propyl]-5β-androstane and 7α-acetoxy-12α-(2,2-dimethyl)butyryloxy-3α-hydroxy-17β-[3-(4(S)-hydroxy-3,4,5,6-tetrahydro-2H-pyran-2-on-6(S)-yl)-2(R)-2-propyl]-5β-androstane]", "values": [{"measurement": "HMGR Screen % Inhibition", "setting": "HMG-CoA reductase [1]; Lactone Form, at 30 μM", "value": 23, "unit": "%"}, {"measurement": "HMGR Screen % Inhibition", "setting": "HMG-CoA reductase [1]; Ring-opened/Sodium Salt, at 300 nM", "value": 21, "unit": "%"}]}, {"smiles": "CC(C)CCC[C@@H](C)[C@H]1CC[C@H]2[C@@H]3[C@@H](O)C=C4C[C@@H](O)CC[C@]4(C)[C@H]3CC[C@]12C", "note": "[7β-hydroxycholesterol]", "values": [{"measurement": "inhibition of sterol synthesis", "setting": "sterol synthesis; [5]", "value": "inhibit sterol synthesis"}]}, {"smiles": "CC(C)CCC[C@@H](C)[C@H]1CC[C@H]2[C@@H]3C(=O)C=C4C[C@@H](O)CC[C@]4(C)[C@H]3CC[C@]12C", "note": "[7-ketocholesterol]", "values": [{"measurement": "inhibition of sterol synthesis", "setting": "sterol synthesis; [5]", "value": "inhibit sterol synthesis"}, {"measurement": "suppression of HMG-CoA reductase activity", "setting": "HMG-CoA reductase [2]", "value": "suppress HMG-CoA reductase activity"}]}, {"smiles": "CC(C)CCC[C@@H](C)[C@H]1CC(=O)C2=C3CC[C@H]4C[C@@H](O)CC[C@]4(C)[C@H]3CC[C@@]21C", "note": "[5α-cholest-8(14)-en-3β-ol-15-one]", "values": [{"measurement": "hypocholesterolemic activity", "setting": "[3]", "value": "significant hypocholesterolemic acitivity"}, {"measurement": "inhibition of sterol synthesis", "setting": "sterol synthesis; [4]", "value": "potent inhibitors of sterol synthesis"}]}, {"smiles": "CCC(C)(C)C(=O)O[C@H]1C[C@H]2C(=C3CC[C@H]([C@H](C)CC4CC(O)CC(=O)O4)[C@]31C)CC[C@@H]1C[C@H](O)CC[C@@]12C", "note": "(stereo partly drawn) [Example 4, 12α-(2,2-dimethyl)butyryloxy-3α-hydroxy-17β-[3-(4(R)-hydroxy-3,4,5,6-tetrahydro-2H-pyran-2-on-6(R)-yl)-2(R)-2-propyl]-5β-androst-8(14)ene and 12α-(2,2-dimethyl)butyryloxy-3α-hydroxy-17β-[3-(4(S)-hydroxy-3,4,5,6-tetrahydro-2H-pyran-2-on-6(S)-yl)-2(R)-2-propyl]-5β-androst-8(14)-ene]", "values": [{"measurement": "HMGR Screen % Inhibition", "setting": "HMG-CoA reductase [1]; Lactone Form, at 3 μM", "value": 19, "unit": "%"}, {"measurement": "HMGR Screen % Inhibition", "setting": "HMG-CoA reductase [1]; Ring-opened/Sodium Salt, at 119 nM", "value": 50, "unit": "%"}]}, {"smiles": "CC(C)CCC[C@@H](C)[C@H]1C[C@H](O)[C@@]2(C)C3=CC[C@H]4C[C@@H](O)CC[C@]4(C)[C@H]3CC[C@]12C", "note": "[14α-methyl-5α-cholest-7-en-3β,15α-diol]", "values": [{"measurement": "inhibition of sterol synthesis", "setting": "sterol synthesis; [4]", "value": "potent inhibitors of sterol synthesis"}]}, {"smiles": "CCC(C)(C)C(=O)O[C@H]1C[C@H]2[C@@H](CC[C@@H]3C[C@H](O)CC[C@@]32C)[C@@H]2CC[C@H]([C@H](C)CC3CC(O)CC(=O)O3)[C@@]12C", "note": "(stereo partly drawn) [Example 2, 12α-(2,2-dimethyl)butyryloxy-3α-hydroxy-17β-[3-(4(R)-hydroxy-3,4,5,6-tetrahydro-2H-pyran-2-on-6(R)-yl)-2(R)-2-propyl]-5β-androstane and 12α-(2,2-dimethyl)butyryloxy-3α-hydroxy-17β-[3-(4(S)-hydroxy-3,4,5,6-tetrahydro-2H-pyran-2-on-6(S)-yl)-2(R)-2-propyl]-5β-androstane]", "values": [{"measurement": "HMGR Screen % Inhibition", "setting": "HMG-CoA reductase [1]; Lactone Form, at 30 μM", "value": 33, "unit": "%"}, {"measurement": "HMGR Screen % Inhibition", "setting": "HMG-CoA reductase [1]; Ring-opened/Sodium Salt, at 352 nM", "value": 50, "unit": "%"}]}]}
